Reference: US9801961B2, “2-phenylimidazo[1,2-a]pyrimidines as imaging agents” (Hoffmann-La Roche Inc., priority 2013, dated 2017)

Each compound was assayed on native tau aggregates (assay: TAU radioligand in vitro displacement assay ([3H]T808 autoradiography on human AD brain sections)). Conditions: compound 10 nM, radioligand [3H]T808 10 nM, 50 mM Tris pH 7.4, room temperature, 30 min.
Format: binding
Method in brief: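 Human AD brain cryosections (10 μm) co-incubated with [3H]T808 (10 nM) and test compound at various concentrations in 50 mM Tris pH 7.4, 30 min at room temperature, then washed at 4° C. Autoradiography after 5-day plate exposure. % displacement from ROI specific binding, white-matter signal subtracted as non-specific; cold T808 internal control.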

SMILES | % displacement of [3H]T808 (10 nM) at 10 nM [%]
CNc1ccn2cc(-c3ccc(NC(C)=O)cc3)nc2n1 [Example 109, N-(4-(7-(Methylamino)imidazo[1,2-a]pyrimidin-2-yl)phenyl)acetamide] | 30
CO[C@H]1CCN(c2ccn3cc(-c4ccccc4)nc3n2)C1 [Example 32, 7-[(3S)-3-Methoxypyrrolidin-1-yl]-2-phenylimidazo[1,2-a]pyrimidine] | 13
COc1cccc(-c2cn3ccc(N4CCC(CCF)CC4)nc3n2)c1 [Example 55, 7-[4-(2-Fluoroethyl)piperidin-1-yl]-2-(3-methoxyphenyl)imidazo[1,2-a]pyrimidine] | 10
CN(C)c1ccn2cc(-c3ccccc3)nc2n1 [Example 18, N,N-Dimethyl-2-phenylimidazo[1,2-a]pyrimidin-7-amine] | 35
CN(C)c1ccn2cc(-c3ccc4c(c3)OCO4)nc2n1 [Example 37, 2-(1,3-Benzodioxol-5-yl)-N,N-dimethylimidazo[1,2-a]pyrimidin-7-amine] | 46
CNc1ccn2cc(-c3cccc(Br)c3)nc2n1 [Example 99, 2-(3-Bromophenyl)-N-methylimidazo[1,2-a]pyrimidin-7-amine] | 27
CNc1ccn2cc(-c3ccc(OCF)cc3)nc2n1 [Example 132, 2-(4-(Fluoromethoxy)phenyl)-N-methylimidazo[1,2-a]pyrimidin-7-amine] | 36
CNc1ccn2cc(-c3cccc(OCCCF)c3)nc2n1 [Example 130, 2-(3-(3-Fluoropropoxy)phenyl)-N-methylimidazo[1,2-a]pyrimidin-7-amine] | 12
FC1CCN(c2ccn3cc(-c4cnccn4)nc3n2)CC1 [Example 106, 7-(4-Fluoropiperidin-1-yl)-2-(pyrazin-2-yl)imidazo[1,2-a]pyrimidine] | 20
FC1CCN(c2ccn3cc(-c4cc5ccccc5s4)nc3n2)CC1 [Example 75, 2-(1-Benzothiophen-2-yl)-7-(4-fluoropiperidin-1-yl)imidazo[1,2-a]pyrimidine] | 18
FCCCOc1ccc(-c2cn3ccc(NC4CC4)nc3n2)cc1 [Example 139, N-Cyclopropyl-2-(4-(3-fluoropropoxy)phenyl)imidazo[1,2-a]pyrimidin-7-amine] | 22
COc1ccc(-c2cn3ccc(NC(C)C)nc3n2)cc1 [Example 77, N-Isopropyl-2-(4-methoxy-phenyl)-imidazo[1,2-a]pyrimidin-7-amine] | 15
FCCOc1cccc(-c2cn3ccc(N4CCC4)nc3n2)c1 [Example 115, 7-(Azetidin-1-yl)-2-(3-(2-fluoroethoxy)phenyl)imidazo[1,2-a]pyrimidine] | 5
CNc1ccn2cc(-c3cccc(CO)c3)nc2n1 [Example 114, [3-[7-(Methylamino)imidazo[1,2-a]pyrimidin-2-yl]phenyl]methanol acetic acid adduct] | 11

Next, values leading:

% displacement of [3H]T808 (10 nM) at 10 nM [%] | SMILES
17 | COc1ccc(-c2cn3ccc(N4CCCCC4)nc3n2)cc1 [Example 49, 2-(4-Methoxyphenyl)-7-piperidin-1-ylimidazo[1,2-a]pyrimidine]
16 | COc1cccc(-c2cn3ccc(N4CCOCC4)nc3n2)c1 [Example 41, 4-[2-(3-Methoxyphenyl)imidazo[1,2-a]pyrimidin-7-yl]morpholine]
43 | CN(C)c1ccc(-c2cn3ccc(N(C)C)nc3n2)cc1 [Example 46, 2-[4-(Dimethylamino)phenyl]-N,N-dimethylimidazo[1,2-a]pyrimidin-7-amine]
4 | Cc1ccc(-c2cn3ccc(N4CCC(F)CC4)nc3n2)cc1 [Example 11, 7-(4-Fluoropiperidin-1-yl)-2-(4-methylphenyl)imidazo[1,2-a]pyrimidine]
36 | COc1cccc(-c2cn3ccc(N4CCC4)nc3n2)c1 [Example 113, 7-(Azetidin-1-yl)-2-(3-methoxyphenyl)imidazo[1,2-a]pyrimidine]
25 | COc1ccc(-c2cn3ccc(N4CC(F)C4)nc3n2)cc1 [Example 70, 7-(3-Fluoroazetidin-1-yl)-2-(4-methoxyphenyl)imidazo[1,2-a]pyrimidine]
25 | COc1ccc(-c2cn3ccc(N4CC[C@@H](F)C4)nc3n2)cc1 [Example 33, 7-[(3R)-3-Fluoropyrrolidin-1-yl]-2-(4-methoxyphenyl)imidazo[1,2-a]pyrimidine]
8 | Cc1ccc(-c2cn3ccc(N4CCCCC4)nc3n2)cc1 [Example 51, 2-(4-Methylphenyl)-7-piperidin-1-ylimidazo[1,2-a]pyrimidine]
11 | COc1ccc(-c2cn3ccc(N4CC5(CCC5)C4)nc3n2)cc1 [Example 65, 7-(2-Azaspiro[3.3]heptan-2-yl)-2-(4-methoxyphenyl)imidazo[1,2-a]pyrimidine]
16 | CN(C)c1ccc(-c2cn3ccc(N4CCOCC4)nc3n2)cc1 [Example 74, N,N-Dimethyl-4-(7-morpholin-4-ylimidazo[1,2-a]pyrimidin-2-yl)aniline]
27 | CN(C)c1ccc(-c2cn3ccc(N(C)CCF)nc3n2)cc1 [Example 92, 2-[4-(Dimethylamino)phenyl]-N-(2-fluoroethyl)-N-methylimidazo[1,2-a]pyrimidin-7-amine]
42 | COc1ccc(-c2cn3ccc(N(C)C4CC4)nc3n2)cc1 [Example 93, N-Cyclopropyl-2-(4-methoxyphenyl)-N-methylimidazo[1,2-a]pyrimidin-7-amine]
30 | FCOc1ccc(-c2cn3ccc(N4CCC4)nc3n2)cc1 [Example 97, 7-(Azetidin-1-yl)-2-[4-(fluoromethoxy)phenyl]imidazo[1,2-a]pyrimidine]

Same assay, conditions: compound 1 uM, radioligand [3H]T808 10 nM, 50 mM Tris pH 7.4, room temperature, 30 min

SMILES | % displacement of [3H]T808 (10 nM) at 1 uM [%]
CN(C)c1ccn2cc(-c3ccccc3)nc2n1 [Example 18, N,N-Dimethyl-2-phenylimidazo[1,2-a]pyrimidin-7-amine] | 92
COc1ccc(-c2cn3ccc(N4CCN(CCF)CC4)nc3n2)cc1.Cl [Example 19, 7-[4-(2-Fluoroethyl)piperazin-1-yl]-2-(4-methoxyphenyl)imidazo[1,2-a]pyrimidine hydrochloride] | 74

Other lines, results leading:

% displacement of [3H]T808 (10 nM) at 1 uM [%] | SMILES
79 | Cc1cccc(-c2cn3ccc(N4CCC(F)CC4)nc3n2)c1 [Example 10, 7-(4-Fluoropiperidin-1-yl)-2-(3-methylphenyl)imidazo[1,2-a]pyrimidine]
75 | FC1CCN(c2ccn3cc(-c4ccc(N5CCOCC5)cc4)nc3n2)CC1 [Example 9, 4-[4-[7-(4-Fluoropiperidin-1-yl)imidazo[1,2-a]pyrimidin-2-yl]phenyl]morpholine]
81 | Cc1ccc(-c2cn3ccc(N4CCC(F)CC4)nc3n2)cc1 [Example 11, 7-(4-Fluoropiperidin-1-yl)-2-(4-methylphenyl)imidazo[1,2-a]pyrimidine]
65 | Fc1ccc(-c2cn3ccc(N4CCC(F)CC4)nc3n2)cc1 [Example 6, 2-(4-Fluorophenyl)-7-(4-fluoropiperidin-1-yl)imidazo[1,2-a]pyrimidine]
70 | FC1CCN(c2ccn3cc(-c4ccsc4)nc3n2)CC1 [Example 63, 7-(4-Fluoropiperidin-1-yl)-2-thiophen-3-ylimidazo[1,2-a]pyrimidine]
